According to US8895032B2, “Dendritic nano-antioxidants” (Central Michigan University, priority 2009, dated 2014):

Tests used:
DPPH radical assay = conditions: read-out: DPPH IC50 at 120 min; Example 15
Experimental: The DPPH assay was one of three electron transfer (ET) assays used to determine the antioxidant potential of compound 1 (described in Example 6) in comparison to its monomeric counterpart (syringaldehyde) as well as popular antioxidants. In an ET assay, an antioxidant donates electron(s) to a molecular probe, thus reducing it. From the assay, thermodynamic conversion of antioxidant to antioxidant radical (oxidation) is measured during a fixed time period.
The reduction of DPPH radical was determined for ascorbic acid, Trolox, syringaldehyde, and the compound 1 described in Example 6 as previously reported (Brand-Williams, et al. Lebensm.-Wiss U.-Technol. 1995, 28, 25-30, incorporated herein by reference in its entirety). In the DPPH assay, DPPH• radical was reduced by the antioxidant in methanol (Brand-Williams, et al. Lebensm.-Wiss U.-Technol. 1995, 28, 25-30, incorporated herein by reference in its entirety). […] The DPPH reagent was made in methanol. Antioxidant sample (10 μL) was added to 1.0 mL of reagent and the absorbance was monitored at 515 nm until a plateau was reached. Antioxidant concentrations were 50 μM syringaldehyde, 12.5 μM Trolox and ascorbic acid, and 5 μM compound 1. All samples were made in methanol and run in triplicates at room temperature.
The DPPH• scavenging capacity of each antioxidant was evaluated from the plot of the percentage DPPH• remaining when the kinetics reached a steady state as a function of the molar ratios of antioxidant to DPPH•. […] Using the curve, EC50 (the amount of antioxidant necessary to decrease the initial DPPH• concentration by 50%), antiradical power (1/EC50, ability to reduce the DPPH•), reaction stoichiometry (EC50×2, the concentration of antioxidant required to reduce 100% of DPPH• radical), and the number of reduced DPPH• per antioxidant molecule (1/stoichiometry) for each antioxidant were calculated as previously described (Brand-Williams, et al. Lebensm.-Wiss U.-Technol. 1995, 28, 25-30, incorporated herein by reference in its entirety) and are depicted in Table 1.
Antioxidant capacity of the compounds was assessed by the DPPH assay (Brand-Williams, et al. Lebensm. Wiss. Technol. 1995, 28, 25, incorporated herein by reference in its entirety). […] In FIG. 22, control with methanol is (X, dashed); compound 1 is (□), compound 2 is (•), compound 3 is (◯), and Trolox (Δ). All antioxidant concentrations were 5 μM.
The free-radical scavenging ability of the antioxidants was evaluated by the DPPH assay, as described above in Example 7.

Human LDL = experiment: Protection of LDL from AAPH oxidation (agarose gel electrophoresis); format: biochemical; conditions: 21 h, 37° C.
From the text: The antioxidant activity of compounds 1, 2, and 3 towards biomolecules was examined by studying their ability to protect LDL, fatty acid, and DNA from free radicals. For LDL, AAPH was used to induce free radical damage. AAPH was used instead of copper (Cu^2) ion for LDL oxidation so that the free radical scavenging activity of the antioxidants could be measured without any pro-oxidant interference caused by metal ions (Salah, N. et al. Arch. Biochem. Biophys. 1995, 322, 339, incorporated herein by reference in its entirety). All solutions were made in ultra-pure water.
Protection of LDL from AAPH free radicals by the antioxidant decreased the anodic shift in a dose-dependent manner (FIG. 23). […] The increased hydrophobicity of compound 3 may be partly responsible for its improved LDL protection over compound 2.
The antioxidant activity of the antioxidants towards biomolecules was examined by studying their ability to protect LDL, lysozyme, and DNA from free radicals. For LDL, AAPH was used to induce free radical damage. AAPH was used instead of Cu^2+ for LDL oxidation so that the free radical scavenging activity of the antioxidants could be measured without any pro-oxidant interference caused by metal ions. The oxidation of human low-density lipoprotein was used as a model for evaluating the ability of the G1 dendrimers as chain-breaking antioxidants for lipid. Oxidation of LDL leads to changes in both the lipid and the protein moieties of the lipoprotein particle. Lipid peroxidation in LDL has been evaluated by a variety of methods. Due to the complexity of events that occur in lipoprotein oxidation, the electrophoretic migration pattern of oxidized LDL is one of the best methods to evaluate the extent of lipoprotein oxidation. LDL was incubated with 20 mM AAPH and increasing concentrations of the G1 dendrimers (0-37 μM in PBS) for 21 h at 37° C. The mixture was then subjected to agarose gel electrophoresis using the Ciba Corning Clinical Electrophoresis System. The agarose gel was stained with Fat Red 7B. In FIG. 30A (top), lane 1 is native LDL, and lanes 2-8 are AAPH-oxidized LDL with 0, 37, 18.5, 9, 4.5, 2 and 1 μM compound 4, respectively. In FIG. 30B (bottom), lane 1 is native LDL, and lanes 2-8 are AAPH-oxidized LDL with 0, 37, 18.5, 9, 4.5, 2 and 1 μM quercetin or Trolox, respectively.

plasmid DNA pBR 322 = experiment: Protection of plasmid DNA from AAPH damage (agarose electrophoresis); format: biochemical; conditions: 10 mM AAPH, 37° C., 4 h; for DNA protection: 5 μM antioxidant
Experimental: The effectiveness of the three compounds to protect DNA from AAPH damage was also determined. The plasmid DNA pBR 322 was incubated with AAPH (final concentration 10 mM) at 37° C. for 4 h with or without antioxidants (final concentrations, 0.35-45 μM), after which the samples were subjected to agarose electrophoresis (Sakihama, Y., et al. Toxicology 2002, 177, 67, incorporated herein by reference in its entirety). […] In the absence of AAPH, pBR 322 was mostly in its supercoiled (S) form (small amount of open circular, O, form was also visible, lane 1 FIG. 25). After reaction with AAPH, the DNA was transformed almost entirely into its open circular form (lane 2, FIG. 25). […] No protection was obtained for both compound 1 and quercetin below 5 μM (lanes 7-10, FIG. 25). […] Compound 3 as well as Trolox were ineffective at all concentrations used in the experiment (0.35-45 μM).
Protection of DNA from free radical damage by the antioxidant dendrimers (compounds 4, 5, and 1) was also evaluated. Plasmid DNA (pBR 322) samples, were incubated with AAPH (final concentration 10 mM) at 37° C. for 4 h with antioxidants (final concentrations, 0.35-45 μM) and subjected to agarose electrophoresis. […] The native DNA was mostly in its supercoiled (S) form (small amount of open circular, O, form was also visible, lane 1, FIG. 31). In the presence of AAPH, the DNA was transformed almost entirely into its O form (lane 2, FIG. 31). […] Negligible DNA protection was afforded by all three dendrimers at ≦2.5 μM (lanes 7-10, FIG. 31). Under similar conditions, Trolox as well as the starting materials for dendrimer synthesis were ineffective at all concentrations.

[1] = system: Chinese hamster ovary (CHO-K1) cells; experiment: Cell toxicity, MTT; format: cell-based; conditions: 3.1-50 μM, over 5 days
Experimental: Data on cell toxicity of compound 4 and compound 5 were obtained with Chinese hamster ovary (CHO) cells using 3-(4,5-di-methylthizol-2-yl)-2,5 diphenyltetrazolium bromide (MTT). Chinese Hamster Ovary (CHO-K1) cells were cultured in F-12K medium supplemented with 10% fetal bovine serum. The cells (3×10^5/ml) were seeded in 100 μL volumes in 96 well culture plates and incubated with the solvent control (DMSO, 0.3%), compound 4 or compound 5 at 3.1, 6.2, 12.5, 25, or 50 μM for 1, 3, or 5 days. Two hours prior to experimental termination, 20 μL of a 5 mg/mL MTT solution in 0.01 M PBS was added to each well. Plates were centrifuged at 450×g for 10 min and supernatant was removed. The resultant formazan crystals were dissolved in 100 μL DMSO and mixed. Absorbance was measured using a Biolog microplate reader (Biotek Instruments) at dual wavelengths, 590 and 650 nm. Percent control response was calculated as follows: (absorbance of treatment/absorbance of control)×100. All experiments were performed in triplicate and repeated. The data were analyzed using Systat 12 for windows. Multiple groups were compared using a one-way analysis of variance (ANOVA) and a Tukey test for mean separation. A p value<0.05 was considered statistically significant.

Row | IC50 (DPPH radical assay) [nM] | Structure (SMILES) | protection of LDL against free radical damage (Human LDL; 15 μM and 30 μM, 20 mM AAPH) | protection of LDL at lower concentrations (Human LDL; lanes 5-8, 20 mM AAPH) | DNA protection (plasmid DNA pBR 322) | DNA protection (S band intensity) (plasmid DNA pBR 322; 11-45 μM antioxidant) | CHO cell viability (MTT) [1] | only concentration effective in protecting LDL (Human LDL; 20 mM AAPH) [µM]
1 | 2000 | COc1cc(CN(CCN(CCN(Cc2cc(OC)c(O)c(OC)c2)Cc2cc(OC)c(O)c(OC)c2)CCN(Cc2cc(OC)c(O)c(OC)c2)Cc2cc(OC)c(O)c(OC)c2)Cc2cc(OC)c(O)c(OC)c2)cc(OC)c1O [Compound 4] | fully protected | ineffective | Some protection | well protected | did not show any reduction in cell viability | 
2 | 2000 | COc1cc(CN(CCN(CCN(Cc2ccc(O)c(OC)c2)Cc2ccc(O)c(OC)c2)CCN(Cc2ccc(O)c(OC)c2)Cc2ccc(O)c(OC)c2)Cc2ccc(O)c(OC)c2)ccc1O [Compound 5] |  |  | Some protection |  | did not show any reduction in cell viability | 30
